The source of these data is US12103915B2, “TEAD inhibitors and methods of uses thereof” (Insilico Medicine IP Limited, priority 2022, dated 2024).

Assay [1] concerns NCI-H226 cells. Kind of assay: Cell growth assay (CellTiter-Glo). The class given is cell-based, human. As to conditions: Homo sapiens, NCI-H226, 168 h, 7 days treatment, CellTiter-Glo luminescence, read-out: H226 CTG IC50. Background: In ATP-based viability assays light output follows the ATP content of the culture.
Assay [2] has as its target TEAD1 (Homo sapiens, UniProt P28347). Kind of assay: Thermal shift assay TEAD1. The class given is binding. In outline: (§1)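 Compounds tested at 10 μM and 1 μM, 0.1% DMSO final, with TEAD1 at 0.2 mg/ml or TEAD2 at 0.08 mg/ml final. Melting monitored with Protein Thermal Shift dye on a qPCR instrument.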
Assay [3] deals with TEAD2 (Homo sapiens, UniProt Q15562). Kind of assay: Thermal shift assay TEAD2. The class given is binding. In outline:
as §1

The target of assay [4] is TEAD3 (Homo sapiens, UniProt Q99594). The assay can be described thus: Thermal shift assay TEAD3. The class given is binding. Summed up:
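TEAD3 protein at 0.1 mg/ml final melted with Protein Thermal Shift dye on a qPCR instrument. Compounds tested at 10 μM and 1 μM in PBS, final DMSO 0.1%.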

Assay [5] deals with TEAD4 (Homo sapiens, UniProt Q15561). The assay can be described thus: Thermal shift assay TEAD4. Format: binding. In outline: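 Protein thermal shift with TEAD4 at 0.1 mg/ml final, Protein Thermal Shift dye, compounds at 10 μM or 1 μM in PBS with 0.1% DMSO final. Melt reactions assembled on ice and run on a qPCR instrument.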
Chain of TEAD4 (Q15561 whole entry, species assumed): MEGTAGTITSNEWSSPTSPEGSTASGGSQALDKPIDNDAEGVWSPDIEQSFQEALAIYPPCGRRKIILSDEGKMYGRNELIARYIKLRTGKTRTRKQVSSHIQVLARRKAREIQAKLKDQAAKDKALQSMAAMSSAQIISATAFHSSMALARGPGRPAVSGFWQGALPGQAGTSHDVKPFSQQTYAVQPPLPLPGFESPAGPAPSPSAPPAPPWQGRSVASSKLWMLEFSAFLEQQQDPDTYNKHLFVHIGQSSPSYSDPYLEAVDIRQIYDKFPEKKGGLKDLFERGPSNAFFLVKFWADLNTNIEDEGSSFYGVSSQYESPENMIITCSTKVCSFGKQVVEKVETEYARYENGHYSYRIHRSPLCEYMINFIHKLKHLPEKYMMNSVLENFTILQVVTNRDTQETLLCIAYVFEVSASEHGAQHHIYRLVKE

Where only a bound is given, the exact number is not on record here.

Chain of TEAD2 (Q15562 whole entry, species assumed): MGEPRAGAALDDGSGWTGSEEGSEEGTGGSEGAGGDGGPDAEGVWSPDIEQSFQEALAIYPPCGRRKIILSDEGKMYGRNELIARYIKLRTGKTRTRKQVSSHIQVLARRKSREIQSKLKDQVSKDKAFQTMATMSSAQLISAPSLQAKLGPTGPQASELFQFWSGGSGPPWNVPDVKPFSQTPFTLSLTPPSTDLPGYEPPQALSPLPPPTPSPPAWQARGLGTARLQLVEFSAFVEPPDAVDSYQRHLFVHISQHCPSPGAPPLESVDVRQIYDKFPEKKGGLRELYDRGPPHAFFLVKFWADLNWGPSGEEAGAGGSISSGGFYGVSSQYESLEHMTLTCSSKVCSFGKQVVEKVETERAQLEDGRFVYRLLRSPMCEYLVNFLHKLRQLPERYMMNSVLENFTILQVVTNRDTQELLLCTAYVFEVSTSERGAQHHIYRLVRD
Chain of TEAD3 (Q99594 whole entry, species assumed): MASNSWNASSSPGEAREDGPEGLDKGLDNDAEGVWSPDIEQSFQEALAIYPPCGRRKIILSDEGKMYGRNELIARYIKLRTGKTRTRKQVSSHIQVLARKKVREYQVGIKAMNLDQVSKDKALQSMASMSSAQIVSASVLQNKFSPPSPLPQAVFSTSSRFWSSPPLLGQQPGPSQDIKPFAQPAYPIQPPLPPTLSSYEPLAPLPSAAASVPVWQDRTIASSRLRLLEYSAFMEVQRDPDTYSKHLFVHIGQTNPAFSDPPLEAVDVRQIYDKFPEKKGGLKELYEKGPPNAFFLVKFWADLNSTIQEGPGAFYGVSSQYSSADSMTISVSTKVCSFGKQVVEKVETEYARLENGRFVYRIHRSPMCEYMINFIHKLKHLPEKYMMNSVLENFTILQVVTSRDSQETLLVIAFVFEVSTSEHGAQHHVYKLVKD
Chain of TEAD1 (P28347 whole entry, species assumed): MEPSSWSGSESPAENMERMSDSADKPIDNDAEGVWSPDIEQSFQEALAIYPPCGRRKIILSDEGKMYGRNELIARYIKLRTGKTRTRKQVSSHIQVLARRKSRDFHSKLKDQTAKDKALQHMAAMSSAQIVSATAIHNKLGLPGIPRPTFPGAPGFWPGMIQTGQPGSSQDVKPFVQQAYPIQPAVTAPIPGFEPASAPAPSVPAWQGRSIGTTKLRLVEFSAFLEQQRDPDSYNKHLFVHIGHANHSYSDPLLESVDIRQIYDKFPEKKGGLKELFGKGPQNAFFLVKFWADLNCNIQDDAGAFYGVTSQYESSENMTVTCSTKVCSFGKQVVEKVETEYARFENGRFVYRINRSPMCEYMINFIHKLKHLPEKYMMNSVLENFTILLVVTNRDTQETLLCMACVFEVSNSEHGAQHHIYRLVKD

For `Cn1cc2cc(Oc3ccc(C(F)(F)F)cc3)cc([C@@H]3C[C@H]3C(=O)NCCO)c2n1` (single isomer, unassigned) [Example 125], the IC50 in assay [1] was below 100 nM. The “TEAD1 ΔTm” value in assay [2] is 9.1 °C. Besides, the “TEAD2 ΔTm” value in assay [3] worked out at 11.9 °C. Further, the “TEAD3 ΔTm” value in assay [4] was 9.3 °C. Further, in assay [5], the “TEAD4 ΔTm” value worked out at 9.6 °C.

Regarding `CNS(=O)(=O)CCc1cc(Oc2ccc(C(F)(F)F)cc2)cc2cccnc12` [Example 142], the IC50 in assay [1] is 100 to 500 nM. The “TEAD1 ΔTm” value in assay [2] worked out at 8.9 °C. Moreover, the “TEAD2 ΔTm” value in assay [3] stood at 11.4 °C. Also, the “TEAD3 ΔTm” value in assay [4] was 10.2 °C. Further, the “TEAD4 ΔTm” value in assay [5] is 9.7 °C.

In the case of `Cn1cc2cc(Oc3ccc(C(F)(F)F)cc3)cc([C@@H]3C[C@H]3C(=O)N=S(C)(C)=O)c2n1` (single isomer, unassigned) [Example 134], the IC50 in assay [1] is below 100 nM. Besides, in assay [2], the “TEAD1 ΔTm” value stood at 6.8 °C. Further, the “TEAD2 ΔTm” value in assay [3] turned out to be 6.0 °C. In assay [4], the “TEAD3 ΔTm” value was 1.5 °C. The “TEAD4 ΔTm” value in assay [5] was found to be 5.8 °C.

`CNC(=O)[C@@H]1CC1c1cc(Oc2ccc(C(F)(F)F)cc2)cc2cn(C3CC3)nc12` (mixture of isomers) [Example 78]: in assay [1], the IC50 was in the range of 100 to 500 nM. For the same compound, the “TEAD1 ΔTm” value in assay [2] stood at 9.2 °C. Moreover, the “TEAD2 ΔTm” value in assay [3] was 11.1 °C. Further, the “TEAD3 ΔTm” value in assay [4] came out at 0.4 °C. In assay [5], the “TEAD4 ΔTm” value was found to be 6.6 °C.

Take `C[C@@H](CO)NC(=O)[C@@H]1CC1c1cc(Oc2ccc(C(F)(F)F)cc2)cc2cn(C)nc12` (single isomer, unassigned) [Example 54]: the IC50 in assay [1] is below 100 nM. For the same compound, the “TEAD1 ΔTm” value in assay [2] was found to be 8.5 °C. Also, the “TEAD2 ΔTm” value in assay [3] amounted to 9.8 °C. Moreover, in assay [4], the “TEAD3 ΔTm” value was determined as 1.2 °C. Besides, the “TEAD4 ΔTm” value in assay [5] was determined as 9.5 °C.

Take `COCCNC(=O)[C@@H]1C[C@H]1c1cc(-c2ccc(C(F)(F)F)cc2)cc2c1cnn2C` (racemic) [Example 30]: in assay [1], the IC50 lay within 100 to 500 nM. In addition, the “TEAD1 ΔTm” value in assay [2] was determined as 1.6 °C. Besides, in assay [3], the “TEAD2 ΔTm” value came to 0.8 °C. The “TEAD3 ΔTm” value in assay [4] is 0.1 °C. Besides, the “TEAD4 ΔTm” value in assay [5] came to 0.9 °C.

Turning to `Cn1cc2cc(Oc3ccc(C(F)(F)F)c(F)c3)cc([C@@H]3C[C@H]3C(=O)N3CC(O)C3)c2n1` (single isomer, unassigned) [Example 132], in assay [1], the IC50 is below 100 nM. In addition, the “TEAD1 ΔTm” value in assay [2] was determined as 10.9 °C. Also, the “TEAD2 ΔTm” value in assay [3] was 15.8 °C. Besides, in assay [4], the “TEAD3 ΔTm” value came to 13.9 °C. The “TEAD4 ΔTm” value in assay [5] is 13.7 °C.

`CNS(=O)(=O)CCc1cc(Oc2ccc(C(F)(F)F)cc2)cc2c1NCCC2` [Example 143]: in assay [1], the IC50 was below 100 nM. Moreover, in assay [2], the “TEAD1 ΔTm” value stood at 9.6 °C. Further, the “TEAD2 ΔTm” value in assay [3] came to 13.2 °C. The “TEAD3 ΔTm” value in assay [4] came out at 10.3 °C. The “TEAD4 ΔTm” value in assay [5] worked out at 8.8 °C.

In the case of `Cn1cc2cc(Oc3ccc(C(F)(F)F)cc3)cc(C3C[C@H]3C(=O)N3CCC[C@@H]3C#N)c2n1` (single isomer, unassigned) [Example 72], the concentration for half-maximal inhibition (IC50) in assay [1] was below 100 nM. In assay [2], the “TEAD1 ΔTm” value came out at 3.5 °C. Further, in assay [3], the “TEAD2 ΔTm” value was 8.6 °C. The “TEAD3 ΔTm” value in assay [4] worked out at 1.7 °C. Moreover, the “TEAD4 ΔTm” value in assay [5] was 4.7 °C.

With `CC(C)NC(=O)[C@H]1C[C@@H]1c1cc(Oc2ccc(C(F)(F)F)cc2)cc2cn(C)nc12` (single isomer, unassigned) [Example 56b], the IC50 in assay [1] was below 100 nM. Moreover, in assay [2], the “TEAD1 ΔTm” value was 9.1 °C. The “TEAD2 ΔTm” value in assay [3] was 10.0 °C. The “TEAD3 ΔTm” value in assay [4] was determined as 8.1 °C. Besides, the “TEAD4 ΔTm” value in assay [5] was 12.5 °C.

For `CN(C#N)C(=O)[C@@H]1C[C@H]1c1cc(Oc2ccc(C(F)(F)F)cc2)cc2cn(C)nc12` (single isomer, unassigned) [Example 124], in assay [1], the IC50 is 1000 to 30000 nM. In addition, in assay [2], the “TEAD1 ΔTm” value was 6.0 °C. For the same compound, the “TEAD2 ΔTm” value in assay [3] stood at 9.8 °C. In addition, the “TEAD3 ΔTm” value in assay [4] was 1.0 °C. In addition, the “TEAD4 ΔTm” value in assay [5] came out at 7.7 °C.

On to `Cn1cc2cc(OC3CC4(C3)CC(F)(F)C4)cc(C3C[C@H]3C(=O)O)c2n1` (mixture of isomers) [Example 93], for which, in assay [1], the IC50 lay within 100 to 500 nM. In assay [2], the “TEAD1 ΔTm” value turned out to be 6.7 °C. Further, in assay [3], the “TEAD2 ΔTm” value worked out at 9.3 °C. In assay [4], the “TEAD3 ΔTm” value came out at 1.3 °C. Also, in assay [5], the “TEAD4 ΔTm” value worked out at 6.4 °C.

As for `CNC(=O)[C@@H]1CC1c1cc(-c2ccc(C(F)(F)F)cc2)cc2c1cnn2C` (stereo partly shown) [Example 40], the IC50 in assay [1] was in the range of 100 to 500 nM. The “TEAD1 ΔTm” value in assay [2] was 1.9 °C. In addition, the “TEAD2 ΔTm” value in assay [3] came out at 2.7 °C. The “TEAD3 ΔTm” value in assay [4] is 0.2 °C. Further, the “TEAD4 ΔTm” value in assay [5] stood at 0.7 °C.

For `Cn1cc2cc(Oc3ccc(C(F)(F)F)cc3)cc([C@@H]3C[C@H]3C(=O)N3CCO[C@H](CO)C3)c2n1` (single isomer, unassigned) [Example 61], the IC50 in assay [1] was below 100 nM. The “TEAD1 ΔTm” value in assay [2] turned out to be 9.3 °C. The “TEAD2 ΔTm” value in assay [3] stood at 12.2 °C. The “TEAD3 ΔTm” value in assay [4] amounted to 0.8 °C. Moreover, the “TEAD4 ΔTm” value in assay [5] amounted to 10.4 °C.

On to `Cn1cc2cc(Oc3ccc(C(F)F)cc3)cc([C@H]3C[C@@H]3C(=O)N3CC(O)C3)c2n1` (single isomer, unassigned) [Example 89b], for which the IC50 in assay [1] is below 100 nM. Further, the “TEAD1 ΔTm” value in assay [2] stood at 8.6 °C. Moreover, in assay [3], the “TEAD2 ΔTm” value is 12.4 °C. In assay [4], the “TEAD3 ΔTm” value was 8.8 °C. Besides, the “TEAD4 ΔTm” value in assay [5] worked out at 11.4 °C.

Regarding `CNC(=O)[C@@H]1CC1c1cc(-c2ccc(C(F)(F)F)cc2)cc2cccnc12` (mixture of isomers) [Example 38], the IC50 in assay [1] fell in the range of 100 to 500 nM. Also, the “TEAD1 ΔTm” value in assay [2] is 1.1 °C. Besides, the “TEAD2 ΔTm” value in assay [3] is 0.8 °C. The “TEAD3 ΔTm” value in assay [4] amounted to 0.5 °C. Besides, the “TEAD4 ΔTm” value in assay [5] was found to be 0.2 °C.

`Cn1cc2cc(Oc3ccc(C(F)(F)F)cc3)cc([C@@H]3C[C@H]3C(=O)N3CC(C)(O)C3)c2n1` (single isomer, unassigned) [Example 60]: the IC50 in assay [1] was below 100 nM. For the same compound, the “TEAD1 ΔTm” value in assay [2] came out at 9.5 °C. For the same compound, the “TEAD2 ΔTm” value in assay [3] is 12.7 °C. For the same compound, in assay [4], the “TEAD3 ΔTm” value stood at 11.2 °C. Further, the “TEAD4 ΔTm” value in assay [5] came out at 12.3 °C.

A word on the IC50: it is the concentration at which inhibition is half-maximal.
